The values that follow are results of earlier work, collected in patent publication US20060193883A1, “Pesticidal treatment materials” (priority 1999, published 2006).

In the series the test system is house dust mite populations. Particulars: in vivo.

With `CC1(C)C(C=C(Cl)Cl)C1C(=O)OCc1cccc(Oc2ccccc2)c1` (centres unmarked) [permethrin], the “effectiveness as long-term acaricides against house dust mite populations” value is given as “highly effective”. Consider `CC1(C)[C@H](C(=O)O[C@H](C#N)c2cccc(Oc3ccccc3)c2)[C@@H]1C=C(Br)Br` [deltamethrin], for which the “effectiveness as long-term acaricides against house dust mite populations” value is “highly effective”.
